How the values were obtained:
mouse CFU-g = assay: CFU-g assay (colony assay), mouse; format: cell-based; conditions: potency as G-CSF mimetic
Experimental: (§1) In determining potency as G-CSF mimetics, the following assay is employed: CFU-g Assay
(§2) The compounds of present invention are tested for potency as G-CSF mimetics in a CFU-g assay, an example of which is described in King AG, Talmadge J., Badger AM, Pelus LM. Regulation of colony stimulating activity production from bone marrow stromal cells by the hematoregulatory peptide, HP-5. Exp. Hematol. 20:223-228, 1992.

human CFU-g = assay: CFU-g assay (colony assay), human; format: cell-based; conditions: potency as G-CSF mimetic
Experimental: as §1, §2

For `O=c1n2c(nc3n1[C@]1(c4ccccn4)n4c(nc5nc6ccccc6n5c4=O)N[C@]1(c1ccccn1)N3)nc1ccccc12` [Compound A, 7a, 17a-bis(2-pyridyl)-16,19-dioxo-5,7a, 10,16,17a, 19-hexahydro-benzimidazo[2′,1′:4,5][1,3,5]triazino[1,2-a]benzimidazo[2″,1″:4′,5′][1,3,5]triazino[1′,2′:1,2]imidazo[4,5-d]imidazole], the “mouse CFU-g, colony assay/% Gmax @ 3 uM” value (mouse CFU-g) was 43 % Gmax and the “human CFU-g, colony assay/% Gmax @ 3 uM” value (human CFU-g) was 41 % Gmax.

From patent US6346531B1, “G-CSF mimetics” (SmithKline Beecham Corporation, priority 1998, dated 2002)
